# According to patent US20210077461A1, “NEW USE” (Novartis AG, priority 2013, published 2021):
# Assays:
# [1] = tested on: patients with chronic symptomatic heart failure and reduced ejection fraction (HF-REF); assay: PARADIGM-HF randomized double-blind trial, LCZ696 versus enalapril: efficacy outcomes; format: in vivo, human; conditions: for Death from any cause, number of patients / Death from any cause, percent of patients / Death from cardiovascular causes or first hospitalization for worsening heart failure (primary composite outcome), number of patients with an event / Death from cardiovascular causes or first hospitalization for worsening heart failure (primary composite outcome), percent of patients / Death from cardiovascular causes, number of patients / Death from cardiovascular causes, percent of patients / Decline in renal function, percent of patients / First hospitalization for worsening heart failure, number of patients / First hospitalization for worsening heart failure, percent of patients / Protocol-defined decline in renal function, number of patients: LCZ696 200 mg bid (N = 4187) or enalapril 10 mg bid (N = 4212); for Death from any cause, number of patients / Death from any cause, percent of patients / Death from cardiovascular causes or first hospitalization for worsening heart failure (primary composite outcome), number of patients with an event / Death from cardiovascular causes or first hospitalization for worsening heart failure (primary composite outcome), percent of patients / Death from cardiovascular causes, number of patients / Death from cardiovascular causes, percent of patients / Decline in renal function, percent of patients / First hospitalization for worsening heart failure, number of patients / First hospitalization for worsening heart failure, percent of patients / Protocol-defined decline in renal function, number of patients / New onset atrial fibrillation, number of patients with an event (as a fraction of number of patients at risk) / New onset atrial fibrillation, percent of patients at risk: median follow-up 27 months; for Progressed to end-stage renal disease, number of patients / New onset atrial fibrillation, number of patients with an event (as a fraction of number of patients at risk) / New onset atrial fibrillation, percent of patients at risk: LCZ696 200 mg bid or enalapril 10 mg bid; for KCCQ clinical summary score, direction of change when zero values were not imputed for patients who died: baseline to month 8
# Excerpt: Patients with chronic HF, NYHA functional class II-IV symptoms, an elevated plasma B-type natriuretic peptide (BNP) or NT-proBNP level and, initially, a left ventricular ejection fraction of ≤40% (later amended to ≤35%) are eligible. […] Secondary outcome measures are change in the Kansas City Cardiomyopathy Questionnaire (KCCQ) clinical summary score at 8 months, change in renal function, and time to all-cause mortality.
# The trial was designed by the academic members of the Executive Committee (EC) in collaboration with Novartis personnel.
# Entry criteria: 1) age 18 years or older and able to give written informed consent 2) New York Heart Association (NYHA) functional class II-IV, 3) left ventricular ejection fraction (LVEF) ≤35% (initially this was ≤40% but changed in a protocol amendment dated Dec. 15, 2010), 4) plasma B-type natriuretic peptide (BNP) ≥150 pg/ml (or N-terminal [NT]-proBNP ≥600 pg/ml) at the screening visit or a BNP ≥100 pg/mL (or NT-proBNP ≥400 pg/ml) and a hospitalization for HF within the last 12 months, 5) treatment with a stable dose of an ACE inhibitor or an ARB equivalent to enalapril 10 mg/d for at least 4 weeks before the screening visit, 6) treatment with stable dose of a β-blocker for at least 4 weeks prior to Visit 1, unless contraindicated or not tolerated. Although not required, the protocol specified that an aldosterone antagonist should also be considered in all patients, taking account of renal function, serum potassium and tolerability. If given, the dose of aldosterone antagonist should be stable for at least 4 weeks prior to the screening visit.
# The key exclusion criteria include: • 1. […] Previous history of intolerance to recommended target doses of ACEIs or ARBs. • 3. Known history of angioedema. • 4. Requirement of treatment with both ACEIs and ARBs. • 5. Current acute decompensated heart failure (exacerbation of chronic heart failure manifested by signs and symptoms that may require intravenous therapy). • 6. Symptomatic hypotension and/or a systolic blood pressure (SBP)<100 mmHg at Visit 1 (screening) or <95 mmHg at Visit 3 or at Visit 5 (randomization). • 7. […] Serum potassium >5.2 mmol/L at Visit 1 (screening) or >5.4 mmol/L at Visit 3 or Visit 5 (randomization). • 9. Acute coronary syndrome, stroke, transient ischemic attack, cardiac, carotid or other major CV surgery, percutaneous coronary intervention or carotid angioplasty within the 3 months prior to Visit 1. • 10. Coronary or carotid artery disease likely to require surgical or percutaneous intervention within the 6 months after Visit 1. • 11. Implantation of a cardiac resynchronization therapy device (CRT) within 3 months prior
# Visit 1 or intent to implant a CRT. • 12. History of heart transplant or on a transplant list or with left ventricular assistance device. • 13. History of severe pulmonary disease. • 14. Diagnosis of peripartum or chemotherapy induced cardiomyopathy within the 12 months prior to Visit 1. • 15. Documented untreated ventricular arrhythmia with syncopal episodes within the 3 months prior to Visit 1. • 16. Symptomatic bradycardia or second or third degree atrio-ventricular block without a pacemaker. • 17. Presence of haemodynamically significant mitral and/or aortic valve disease, except mitral regurgitation secondary to left ventricular dilatation. • 18. Presence of other haemodynamically significant obstructive lesions of left ventricular outflow tract, including aortic and sub-aortic stenosis. • 19. […] Presence of any other disease with a life expectancy of <5 years.
# At the screening visit, patient eligibility was assessed according to the inclusion/exclusion criteria. Any local measurement of LVEF ≤35%, made within the past 6 months, was acceptable provided there was no subsequent LVEF measurement above 35%. Eligibility BNP (and NT-proBNP), serum potassium and estimated glomerular filtration rate (eGFR) were measured in a central laboratory.
# [2] = tested on: patients with chronic symptomatic heart failure and reduced ejection fraction (HF-REF); assay: PARADIGM-HF: safety and tolerability
# Description: Patients are assessed at each study visit for hyperkalaemia, symptomatic hypotension, increase in serum creatinine, angioedema and other AEs and serious AEs (SAEs). […] The dose of background disease modifying drugs, such as β-blockers, should not be reduced to facilitate maintenance of study drug. Every attempt should be made to re-challenge the patients so as to maintain as many patients as possible on the target dose of study drug.
# All identified cases are submitted to an independent angioedema adjudication committee for a final decision.
# Thus, this study employed a seamless design, incorporating “Phase II” into a “Phase III” outcomes trial, as considered further in the Discussion. Further interim safety assessments are planned twice a year.
# hypertensive patients = conditions: cited from earlier work
# HF patients = conditions: cited from earlier work
# [3] = in vivo; cited from earlier work
# [4] = tested on: patients with heart failure; conditions: cited from earlier work
# [5] = zero values imputed for patients who died
# [6] = LCZ696 group compared with enalapril group, stratified Cox model
# [7] = over the duration of the trial, LCZ696 versus enalapril
# [8] = subgroups by base-line treatment
smiles,measurement,setting,value
"CCOC(=O)[C@H](CCc1ccccc1)N[C@@H](C)C(=O)N1CCC[C@H]1C(=O)O [Enalapril, (2S)-1-[(2S)-2-{[(2S)-1-ethoxy-1-oxo-4-phenylbutan-2-yl]amino}propanoyl]-pyrrolidine-2-carboxylic acid, reference compound]","Death from any cause, number of patients",[1],835 patients
same,"Death from any cause, percent of patients",[1],19.8%
same,"Death from cardiovascular causes or first hospitalization for worsening heart failure (primary composite outcome), number of patients with an event",[1],1117 patients
same,"Death from cardiovascular causes or first hospitalization for worsening heart failure (primary composite outcome), percent of patients",[1],26.5%
same,"Death from cardiovascular causes, number of patients",[1],693 patients
same,"Death from cardiovascular causes, percent of patients",[1],16.5%
same,"Decline in renal function, percent of patients",[1],2.6
same,"First hospitalization for worsening heart failure, number of patients",[1],658 patients
same,"First hospitalization for worsening heart failure, percent of patients",[1],15.6%
same,"Protocol-defined decline in renal function, number of patients",[1],108 patients
same,"Progressed to end-stage renal disease, number of patients",[1],16 patients
same,"New onset atrial fibrillation, number of patients with an event (as a fraction of number of patients at risk)",[1],83/2638
same,"New onset atrial fibrillation, percent of patients at risk",[1],(3.2)
same,"New onset atrial fibrillation, number of patients with an event (as a fraction of number of patients at risk)",[1]; listed as enalapril,83 patients
same,"KCCQ clinical summary score, direction of change when zero values were not imputed for patients who died",[1],declined
same,Mean change in KCCQ Clinical Summary Score from baseline to month 8,[1]; [5],−4.63
same,"Angioedema confirmed by blinded adjudication, number of patients","[2]; human, in vivo",10 patients
same,Patients who stopped study medication because of renal impairment,"[2]; human, in vivo",1.4%
same,Patients who stopped study medication for any adverse event,"[2]; human, in vivo",12.3%
same,Incidence of angioedema,hypertensive patients,0.68%
same,Incidence of angioedema,HF patients,0.5%
O=C(N[C@H]1CCS[C@H]2CCC[C@@H](C(=O)O)N2C1=O)[C@@H](S)Cc1ccccc1 [omapatrilat],Incidence of angioedema,hypertensive patients,2.17%
same,"BP lowering as compared to other therapeutic classes, including ACE inhibitors and calcium channel blockers",[3],greater BP lowering
same,Incidence of angioedema,HF patients,0.8%
same,Mortality and morbidity in patients with HF relative to enalapril,HF patients,encouraging trend toward reducing mortality and morbidity
"CCCCC(=O)N(Cc1ccc(-c2ccccc2-c2nn[n-]n2)cc1)C(C(=O)[O-])C(C)C.CCOC(=O)C(C)CC(Cc1ccc(-c2ccccc2)cc1)NC(=O)CCC(=O)[O-].[Na+].[Na+].[Na+] [LCZ696, trisodium [3-((1S,3R)-1-biphenyl-4-ylmethyl-3-ethoxycarbonyl-1-butylcarbamoyl)propionate-(S)-3′-methyl-2′-(pentanoyl{2″-(tetrazol-5-ylate)biphenyl-4′-ylmethyl}amino)butyrate] hemipentahydrate]","Death from any cause, number of patients",[1],711 patients
same,"Death from any cause, percent of patients",[1],17.0%
same,"Death from cardiovascular causes or first hospitalization for worsening heart failure (primary composite outcome), number of patients with an event",[1],914 patients
same,"Death from cardiovascular causes or first hospitalization for worsening heart failure (primary composite outcome), percent of patients",[1],21.8%
same,"Death from cardiovascular causes, number of patients",[1],558 patients
same,"Death from cardiovascular causes, percent of patients",[1],13.3%
same,"Decline in renal function, percent of patients",[1],2.3
same,"First hospitalization for worsening heart failure, number of patients",[1],537 patients
same,"First hospitalization for worsening heart failure, percent of patients",[1],12.8%
same,"Protocol-defined decline in renal function, number of patients",[1],94 patients
same,"Progressed to end-stage renal disease, number of patients",[1],8 patients
same,"New onset atrial fibrillation, percent of patients at risk",[1],(3.2)
same,"Death from any cause, hazard ratio",[1]; [6],0.84
same,"Death from cardiovascular causes, hazard ratio",[1]; [6],0.80
same,"Decline in renal function, hazard ratio",[1]; [6],0.86
same,"First hospitalization for worsening heart failure, hazard ratio",[1]; [6],0.79
same,"New onset atrial fibrillation, hazard ratio",[1]; [6],0.97
same,"Primary composite outcome, hazard ratio",[1]; [6],0.80
same,"KCCQ clinical summary score change, between-group difference when zero values were not imputed for patients who died",[1]; LCZ696 group versus enalapril group,0.95
same,"KCCQ clinical summary score change at 8 months, between-group difference","[1]; LCZ696 group versus enalapril group, zero values imputed for patients who died",1.64
same,Reduction of the risk of cardiovascular death and the risk of hospitalization for heart failure compared to enalapril,[1]; LCZ696 versus ACE inhibition with enalapril,20%
same,Reduction of hospitalization for heart failure compared to enalapril,[1]; LCZ696 versus enalapril,21%
same,"KCCQ clinical summary score, direction of change when zero values were not imputed for patients who died",[1],improved
same,"Systolic blood pressure at 8 months compared with value at randomization, lower in the LCZ696 group than in the enalapril group",[1]; difference between groups at 8 months,3.2±0.4 mm Hg
same,Number of patients needed to treat to prevent one cardiovascular death,[1]; [7],32 patients
same,Number of patients needed to treat to prevent one primary event,[1]; [7],21 patients
same,Mean change in KCCQ Clinical Summary Score from baseline to month 8,[1]; [5],−2.99
same,"Angioedema confirmed by blinded adjudication, number of patients",[2]; following randomization,19 patients
same,"Cough as an adverse event, compared with the enalapril group",[2]; following randomization,less and less likely
same,"Experience of serum creatinine level ≥2.5 mg/dl, compared with the enalapril group",[2]; following randomization,less likely
same,"Experience of serum potassium level >6.0 mmol/l, compared with the enalapril group",[2]; following randomization,less likely
same,"Hypotension / report of symptomatic hypotension, compared with the enalapril group",[2]; following randomization,more and more likely
same,Patients who stopped study medication because of renal impairment,[2]; following randomization,0.7%
same,Patients who stopped study medication for any adverse event,[2]; following randomization,10.7%
same,"Hyperkalemia, compared with the enalapril group",[2]; in vivo,less
same,"Non-serious angioedema, compared with the enalapril group",[2]; in vivo,more
same,"Renal impairment, compared with the enalapril group",[2]; in vivo,less
"CCCCC(=O)N(Cc1ccc(-c2ccccc2-c2nnn[nH]2)cc1)[C@H](C(=O)O)C(C)C [valsartan, (S)—N-valeryl-N-{[2′-(1H-tetrazole-5-yl)-biphenyl-4-yl]-methyl}-valine]","Incidence of the combined end point of mortality and morbidity, lower with valsartan than with placebo",[4]; Val-HeFT,13.2%
same,"NYHA class, ejection fraction, signs and symptoms of heart failure, and quality of life as compared with placebo",[4]; Val-HeFT,significant improvements
same,Number of patients hospitalized for heart failure,[4]; Val-HeFT,346 patients
same,Overall mortality compared with placebo group,[4]; Val-HeFT,similar
same,Percent of patients hospitalized for heart failure,[4]; Val-HeFT,13.8%
same,"Post hoc analysis of the combined end point and mortality, patients receiving both ACE inhibitors and beta-blockers",[4]; [8],adverse effect
same,"Post hoc analysis of the combined end point and mortality, patients receiving neither or one of ACE inhibitors or beta-blockers",[4]; [8],favorable effect
same,"Combined end point of mortality and morbidity, relative risk",[4]; valsartan versus placebo,0.87
